Here are results for 1 compound from patent US11607422B2, “Uttroside B and derivatives thereof as therapeutics for hepatocellular carcinoma” (Rajiv Gandhi Centre for Biotechnology, an Autonomous …, priority 2016, dated 2023).

Structures are written as SMILES.

In general, IC50 refers to the concentration at which inhibition is half-maximal.

The subject of one assay is HeLa. The assay is described as follows: MTT cell viability assay in HeLa cells. The assay is classed as cell-based. As to conditions: 72 h. Here is the method:
FIG. 2A is a graph comparison of IC50 of Uttroside B in a panel of cancer cells of different origin. The cancer cell lines HeLa, A375, HepG2, MDA-MB-231, HL 60, A549 and HCT116 were treated with Uttroside B as indicated, incubated for 72 h and the cell viability was assessed by MTT assay. FIG. 2B is a graph showing dose dependent effect of Uttroside B in the liver cancer cell lines and in normal immortalized hepatocytes. The liver cancer cell lines HepG2, Hep3B, SKHEP-1, Huh-7 and normal hepatocytes (Chang liver), were treated with Uttroside B incubated for 72 h and the cell viability was assessed by MTT assay. FIG. 2C is a graph comparison of IC50 of Uttroside B with sorafenib. HepG2 cells were treated with Uttroside B as indicated, incubated for 72 h, and the cell viability was assessed by MTT assay. […] The clones developed were counted and plotted as a graph. Colony containing more than four cells was counted as one clone. […]
MTT [3-(4,5-dimethylthiazole-2-yl)-2,5-diphenyltetrazolium bromide] assay is a standard colorimetric assay, suitable for analyzing proliferation, viability, and cytotoxicity. […] After overnight incubation, cells were treated with different concentrations of organic extracts (25-250 μg/ml) of S. nigrum and the isolated compound Uttroside B (250-1250 nM) for 72 h and cytotoxicity was measured. […]

The test system of a further assay is HepG2 xenograft tumors. Nature of the assay: HepG2-xenograft model in NOD-SCID mice. The assay is classed as in vivo. Here is the method: Our next attempt was to validate the anticancer potential of Uttroside B against hepatic cancer, using an in vivo HepG2-xenograft model in NOD-SCID mice. The HepG2 cells suspended in matrigel were subcutaneously injected in the flank region of the mice. The study has been schematically represented in FIG. 6A. Uttroside B, dissolved in PBS, was administered after 15 days of tumor cell implantation when the tumor attained a size of 50-100 mm^3 approximately. Uttroside B (10 mg/kg bw) was injected intraperitoneally, thrice weekly for four weeks. […] The size of the tumor was measured using Vernier calipers every week and the corresponding tumor volume was calculated. […] However, upon sacrifice, very small tumors were observed beneath the skin of animals treated with Uttroside B too, though the size was drastically less compared to that of control animals [FIG. 6B-6C]. […] Although this study was in a mouse the skilled artisan knows that that dose may be converted to human equivalent dosage by simple math. For example the 10 mg/kg body weight for a mouse would convert to a 0.8 mg/kg body weight for a human and result in a range from 0.05 to 1.2 mg/kg body weight.
In vivoHepG2-Xenograft model: All animal studies were performed in accordance with the protocols approved by Institute Animal Ethical Committee IAEC No: 151(b)/RUBY/2012. An ectopic xenograft model in NOD-SCID (NOD.CB17-Prkdcscid/J) mice was used for evaluating the anti-cancer properties of Uttroside B. The animals required for this study were obtained from Animal Research Facility of Rajiv Gandhi Centre for Biotechnology and were fed with standard food pellets and autoclaved water ad libitum. Animal handling, tumor induction, drug treatment and tissue collection were performed in sterile conditions.
Evaluation of the anticancer activity of Uttroside B, isolated from S. nigrum in human liver cancer (HepG2)-xenograft model: xenografts models were established in NOD-SCID mice as described in literature.^10 Male NOD-SCID (NOD.CB17-Prkdc^scid/J) mice of age 6-8 weeks were used for the study. Tumors were induced by subcutaneous injection of HepG2 cells (7×10^6 cells in 100 μL matrigel) in the lower right or left flank of mice and were allowed to grow for a period of two weeks to attain a size of approximately 50-100 mm^3 as measured by Vernier calipers. The mice were then randomly grouped into control and treatment group of 9 animals each. The treatment groups were injected intraperitoneally with Uttroside B (10 mg/kg doses thrice weekly) for one month. Tumor volume was measured every seven days to evaluate tumor growth and drug response. The animals were sacrificed at the end of the study and tumor samples were collected for histopathological and immunohistochemical analysis.
Histopathology: The tissue cryo-sections were washed with PBS (5 min, 2 times) and distilled water for 5 min. Then the sections were stained with hematoxylin for 2 min. Excess stain was washed off and the slides were dipped in differentiation solution for 1-2 s. They were then kept in tap water for 10 min and 70% Isopropyl alcohol for 5 min respectively and were counter stained with eosin solution for 1 min. The sections were then transferred to 100% Isopropyl alcohol and kept for 2 min, cleared in xylene for 1 h and were mounted using DPX. Stained sections were observed using a light microscope and were photographed. The pathology of liver and tumor tissue sections were examined and verified by Dr. Sankar Sundaram, Professor of Pathology, Medical College, Thiruvananthapuram.
Immunohistochemistry of xenograft tissue sections: Immunohistochemical analysis of various proteins in the xenograft tumor tissue sections was performed using the detection kit, as per manufacturer's protocol Super Sensitive™ Polymer-HRP IHC Detection System (Biogenex, Calif., USA). Paraformaldehyde-fixed OCT-embedded tissue sections were kept in PBS for 15 min. […]

[1] abbreviates: 10 mg/kg bw i.p. thrice weekly, four weeks.

`C[C@H](CC[C@@]1(O)O[C@H]2C[C@H]3[C@@H]4CC[C@H]5C[C@@H](O[C@@H]6O[C@H](CO)[C@H](O[C@@H]7O[C@H](CO)[C@@H](O)[C@H](O[C@@H]8OC[C@@H](O)[C@H](O)[C@H]8O)[C@H]7O[C@@H]7O[C@H](CO)[C@@H](O)[C@H](O)[C@H]7O)[C@H](O)[C@H]6O)CC[C@]5(C)[C@H]4CC[C@]3(C)[C@H]2[C@@H]1C)CO[C@@H]1O[C@H](CO)[C@@H](O)[C@H](O)[C@H]1O` [Uttroside B] came in with an IC50 in the assay with HeLa of 1500 nM. For the same compound, in the assay on HepG2 xenograft tumors (setting [1]), the “cleaved PARP expression in tumor sections (IHC)” value is reported as “Significant upregulation in the expression of cleaved PARP”, the “externally visible tumor at end of treatment” value was “no tumor was visible externally”, the “histopathology (H&E) of tumor mass” value is on record as “massive destruction of cells” and the “tumor volume vs control” value is listed as “significantly low”. For the same compound, in the assay with HepG2 xenograft tumors (HepG2 xenograft tumor sections), the “tissue level expression of LC3 (IHC)” value is reported as “very high” and the “tissue level expression of beclin-1 (IHC)” value is given as “very high”. The “phosphorylation status of p70S6K and 4E-BP-1 in xenograft tumor tissue” value in the assay on HepG2 xenograft tumors (immunohistochemical staining, NOD-SCID mice) is given as “significant down-regulation in the phosphorylation status”.
